These results are taken from ChEMBL document CHEMBL1201862, “PubChem BioAssay data set” (2004).

What is called AC50 is the concentration giving half of the maximal activity seen. The GI50 is the concentration giving 50% growth inhibition.

Calls of active or inactive are those of the source. Bounds are passed on as bounds.

For assay [1], the target named is FAD-linked sulfhydryl oxidase ALR (Homo sapiens, UniProt P55789). Nature of the assay: ALR-catalysed DTT oxidation blockers – biochemical, H2O2 detection, luminescence, cherry-pick, dose response (AID 493248).
Sequence of FAD-linked sulfhydryl oxidase ALR (P55789 whole entry): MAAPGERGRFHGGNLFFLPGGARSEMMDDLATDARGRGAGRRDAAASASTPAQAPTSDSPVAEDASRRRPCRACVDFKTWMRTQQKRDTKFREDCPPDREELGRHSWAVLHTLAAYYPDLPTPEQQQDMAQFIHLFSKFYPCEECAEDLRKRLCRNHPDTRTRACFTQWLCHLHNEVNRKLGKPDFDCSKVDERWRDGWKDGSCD
For assay [2], the target named is T1, Polyadenylate-binding protein 1 (Homo sapiens, UniProt P11940). Kind of assay: MLLE binding blockers, Cy5 peptide tracer – biochemical, fluorescence polarization, Cy5-PAM2 peptide, secondary, miRNA deadenylation inhibitor project, dose response (AID 602260). As to conditions: read-out: IC50_Mean. The class given is functional. (In fluorescence polarisation assays a small probe gives low polarisation when free and higher when bound to something large.)
T1 sequence (P11940 whole entry): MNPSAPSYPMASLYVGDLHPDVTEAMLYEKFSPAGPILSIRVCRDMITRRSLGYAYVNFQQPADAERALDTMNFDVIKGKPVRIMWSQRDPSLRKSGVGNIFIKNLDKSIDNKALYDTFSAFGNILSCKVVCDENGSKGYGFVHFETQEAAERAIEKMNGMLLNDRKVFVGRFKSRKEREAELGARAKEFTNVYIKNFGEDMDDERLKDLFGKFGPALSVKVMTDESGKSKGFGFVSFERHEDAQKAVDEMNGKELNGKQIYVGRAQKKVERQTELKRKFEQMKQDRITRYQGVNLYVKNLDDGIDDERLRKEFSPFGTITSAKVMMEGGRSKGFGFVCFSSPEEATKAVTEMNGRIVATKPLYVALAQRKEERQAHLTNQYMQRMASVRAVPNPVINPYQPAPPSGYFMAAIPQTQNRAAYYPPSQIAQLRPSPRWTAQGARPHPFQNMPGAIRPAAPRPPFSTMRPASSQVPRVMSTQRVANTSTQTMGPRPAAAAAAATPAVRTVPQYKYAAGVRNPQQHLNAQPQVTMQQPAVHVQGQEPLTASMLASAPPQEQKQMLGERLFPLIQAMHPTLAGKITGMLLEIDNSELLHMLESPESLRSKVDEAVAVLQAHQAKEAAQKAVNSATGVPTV

In assay [3] the target is T1, Polyadenylate-binding protein 1. Kind of assay: MLLE domain peptide-binding blockers, IC50 – biochemical, fluorescence polarization, FITC-PAM2 peptide, dose response (AID 602259). The class given is functional. As to conditions: read-out: IC50_Mean.
Assay [4] concerns the target T2, Calpain-2 catalytic subunit (Sus scrofa, UniProt P43367).
T2 sequence (P43367 whole entry): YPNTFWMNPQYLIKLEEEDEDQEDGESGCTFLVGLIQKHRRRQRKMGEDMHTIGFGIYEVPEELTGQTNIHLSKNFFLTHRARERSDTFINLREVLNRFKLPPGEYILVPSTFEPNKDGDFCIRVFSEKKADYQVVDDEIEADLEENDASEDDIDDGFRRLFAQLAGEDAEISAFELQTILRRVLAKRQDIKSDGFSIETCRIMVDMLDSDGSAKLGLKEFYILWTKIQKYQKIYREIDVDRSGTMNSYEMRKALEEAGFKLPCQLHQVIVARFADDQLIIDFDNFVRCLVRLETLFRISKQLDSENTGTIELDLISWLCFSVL
Nature of the assay: m-calpain protease blockers, concentration series – biochemical, fluorogenic peptide substrate, dose response (AID 1420). The class given is functional.

For assay [5], the target named is T3, Corticotropin-releasing factor receptor 2/Corticotropin-releasing factor-binding protein (Homo sapiens, UniProt P24387+Q13324).
T3 sequence (Q13324 whole entry): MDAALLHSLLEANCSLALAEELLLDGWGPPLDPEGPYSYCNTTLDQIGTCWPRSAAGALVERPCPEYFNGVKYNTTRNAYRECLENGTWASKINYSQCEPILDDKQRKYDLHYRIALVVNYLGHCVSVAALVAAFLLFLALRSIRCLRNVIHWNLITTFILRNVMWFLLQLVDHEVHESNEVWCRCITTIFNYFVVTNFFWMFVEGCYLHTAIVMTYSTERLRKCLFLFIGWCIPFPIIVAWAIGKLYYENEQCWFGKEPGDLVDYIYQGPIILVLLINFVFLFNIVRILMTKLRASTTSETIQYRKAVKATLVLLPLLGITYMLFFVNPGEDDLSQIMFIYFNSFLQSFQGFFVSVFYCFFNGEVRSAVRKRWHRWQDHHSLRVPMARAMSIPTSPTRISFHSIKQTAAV
T3 sequence (P24387 whole entry): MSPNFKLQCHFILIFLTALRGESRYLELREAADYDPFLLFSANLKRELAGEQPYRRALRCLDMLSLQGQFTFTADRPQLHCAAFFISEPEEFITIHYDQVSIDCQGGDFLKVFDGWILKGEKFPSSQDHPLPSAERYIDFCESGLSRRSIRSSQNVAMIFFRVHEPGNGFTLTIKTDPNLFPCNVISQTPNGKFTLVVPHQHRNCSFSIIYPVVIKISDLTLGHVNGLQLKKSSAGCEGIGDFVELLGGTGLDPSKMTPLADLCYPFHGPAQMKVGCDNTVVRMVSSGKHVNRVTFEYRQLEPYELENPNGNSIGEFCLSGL
Kind of assay: Dose Response confirmation of uHTS hits for small molecule antagonists of the CRF-binding protein and CRF-R2 receptor complex. In kind it is functional. As to conditions: read-out: IC50_Mean.

The target of assay [6] is T3, Corticotropin-releasing factor receptor 2/Corticotropin-releasing factor-binding protein. Nature of the assay: activators of CRF receptor 2 with binding protein – uHTS hits, confirmation (AID 602473). In kind it is functional. As to conditions: read-out: EC50_Mean.
The target of assay [7] is T4, High affinity choline transporter 1 (Homo sapiens, UniProt Q9GZV3).
T4 sequence (Q9GZV3 whole entry): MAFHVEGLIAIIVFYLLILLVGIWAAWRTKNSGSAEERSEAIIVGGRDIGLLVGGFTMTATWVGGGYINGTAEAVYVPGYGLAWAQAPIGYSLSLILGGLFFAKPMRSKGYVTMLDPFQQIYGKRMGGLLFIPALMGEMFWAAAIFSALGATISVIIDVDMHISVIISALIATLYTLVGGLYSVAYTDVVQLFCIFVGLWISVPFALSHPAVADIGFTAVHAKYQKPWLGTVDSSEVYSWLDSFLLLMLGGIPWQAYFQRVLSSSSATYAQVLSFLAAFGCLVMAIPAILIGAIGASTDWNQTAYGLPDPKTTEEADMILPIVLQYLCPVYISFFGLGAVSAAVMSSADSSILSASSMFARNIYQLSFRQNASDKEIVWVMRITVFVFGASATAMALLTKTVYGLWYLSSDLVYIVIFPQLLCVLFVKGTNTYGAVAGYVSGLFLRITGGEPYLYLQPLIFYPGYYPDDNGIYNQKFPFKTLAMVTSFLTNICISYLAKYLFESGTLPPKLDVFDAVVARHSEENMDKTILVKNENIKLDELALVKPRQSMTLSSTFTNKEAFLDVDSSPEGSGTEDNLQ
Kind of assay: human choline transporter blockers, potency – cell-based, 5-point CRC, membrane potential dye, dose response (AID 504840). The class given is functional.

In another assay the test system is P388/ADR. Kind of assay: cells. In kind it is functional. As to conditions: Mus musculus.
The next assay has as its system SN12K1. Nature of the assay: cells. The class given is functional. As to conditions: Homo sapiens.
The test system of another assay is P388. Kind of assay: cells. As to conditions: Mus musculus. The class given is functional.
Assay [8] addresses T5, Rac GTPase-activating protein 1 (Homo sapiens, UniProt Q9H0H5).
T5 sequence (Q9H0H5 whole entry): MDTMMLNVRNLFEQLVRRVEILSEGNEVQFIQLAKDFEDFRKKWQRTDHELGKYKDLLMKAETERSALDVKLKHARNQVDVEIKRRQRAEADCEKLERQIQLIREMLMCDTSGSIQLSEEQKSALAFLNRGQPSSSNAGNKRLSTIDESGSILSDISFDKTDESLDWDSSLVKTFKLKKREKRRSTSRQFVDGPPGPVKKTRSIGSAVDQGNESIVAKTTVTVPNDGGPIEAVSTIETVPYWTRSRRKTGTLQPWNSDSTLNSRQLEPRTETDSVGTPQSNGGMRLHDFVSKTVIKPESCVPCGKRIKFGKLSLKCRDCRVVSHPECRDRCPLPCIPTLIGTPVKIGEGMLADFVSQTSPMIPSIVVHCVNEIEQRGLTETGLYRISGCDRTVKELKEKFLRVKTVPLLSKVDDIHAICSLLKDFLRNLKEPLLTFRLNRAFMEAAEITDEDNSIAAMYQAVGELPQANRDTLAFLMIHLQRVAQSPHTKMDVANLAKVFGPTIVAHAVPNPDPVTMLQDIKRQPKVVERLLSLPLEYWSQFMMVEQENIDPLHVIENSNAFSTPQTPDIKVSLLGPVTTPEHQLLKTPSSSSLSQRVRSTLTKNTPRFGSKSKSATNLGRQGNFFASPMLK
Nature of the assay: blockers of MgcRacGAP-driven Rac1 GTP hydrolysis – biochemical, ADP Hunter fluorescence, primary and confirmatory, confirmation (AID 624330). In kind it is functional.

The nature of assay [9]: intracellular Trypanosoma cruzi inhibitors in host cells – cell-based, plate reader, cherry-pick samples, set 3, dose response (AID 651818).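 Further: compounds incubated with infected cells for about four days.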 In kind it is functional.

Turning to `Cc1cc(N2CCN(c3ccccc3)CC2)nc(N)n1`, the AC50 in [1] is 4.38 µM (active).
For `COC(=O)c1ccc2c(=O)sc(N3CCC(C(N)=O)CC3)nc2c1`, the IC50 in assay [2] was > 66 µM (inactive); in [3], 52.6 µM (inactive).
Consider `CCCN(CCC)C(=S)NC(=O)c1ccc(-c2ccccc2)cc1`, for which the values for the IC50 in assay [4], in assay [2] and in [3] were 36.7 µM (not active), > 66 µM (inactive) and > 66 µM (inactive), respectively.
As for `O=C(NCc1cccnc1)c1ccc2c(c1)N(Cc1ccccc1)CCS2`, the AC50 in assay [1] is 3.31 µM (active).
For `CC1CCN(C(=S)c2ccc([N+](=O)[O-])cc2)CC1`, the IC50 in assay [2] and in [3] was > 66 µM (inactive) in each case.
Consider `Cc1cccc(C)c1NC(=S)Nc1ccc(F)cc1`, for which the IC50 is > 66 µM (inactive) in assay [2], > 47.1 µM (inactive) in assay [5] and > 66 µM (inactive) in [3]. Also, in assay [6], the EC50 was > 53 µM (inactive).
In the case of `CC(=O)NNc1nc(-c2ccc(NC(C)=O)cc2)cs1`, the AC50 in assay [1] is 0.58 µM (active).
For `Cc1ccc(S(=O)(=O)N2[C@@H](c3ccc(Cl)cc3)C(C(=O)O)=CC[C@H]2c2ccc(Cl)c(Cl)c2)cc1`, in assay [1], the AC50 was 6.86 µM (active). Further, the IC50 in assay [7] was 794 nM (active).
Consider `O=C1N=C2SCCN2/C1=C\c1ccccc1Cl`, for which the IC50 in assay [2] and in assay [3] was > 66 µM (inactive) each time.
With `Cc1nc2ccccc2c(=O)n1Nc1ccc(C(=O)O)cc1`, the GI50 in the assay on P388/ADR, in the assay on SN12K1 and in the assay on P388 was > 100 µM (inactive) throughout.
Regarding `c1ccc2c3c(ccc2c1)-c1[nH]ncc1CCO3`, the GI50 in the assay with P388/ADR was 26.9 µM (inactive); in the assay with SN12K1 it was 22.4 µM (inactive); in the assay on P388, 26.1 µM (inactive).
For `C=C1C(C)C2C(Cc3ccccc3)NC(=O)C23C(OC(C)=O)C=CC(C)(O)C(=O)C(C)C/C=C/C3C1O` (centres undefined), in that order: 14.4 µM (inactive), 0.0619 µM (active) and 0.454 µM (active).
As for `COc1cc(/C=N/n2c(S)nnc2C2CCCCC2)ccc1O`, the AC50 in assay [1] is 2.3 µM (active). The IC50 in assay [8] is 47.9 µM (active).
Regarding `COc1ccc(Cc2nn(C3OC(COC(C)=O)C(OC(C)=O)C(OC(C)=O)C3OC(C)=O)c(=S)n(-c3ccc(OC)cc3)c2=O)cc1` (centres undefined), the GI50 in the assay with P388/ADR, with SN12K1 and in the assay with P388 was > 100 µM (inactive) in each case.
`O=C1C(Br)=CC2([N+](=O)[O-])CCNC3=C(C4=NCCc5c[nH]c(c54)C3=O)C2=C1Br` (centres undefined): the GI50 was 0.579 µM (active) in the assay with P388/ADR, 3.3 µM (inactive) in the assay on SN12K1 and 0.317 µM (active) in the assay with P388.
For `Cc1c2cnccc2c(C)c2c1c1ccccc1n2CC1CO1` (centres undefined), in that order: 0.065 µM (active), 0.719 µM (active) and 0.0291 µM (active).
In the case of `C[C@H](CO)N1C[C@H](C)[C@@H](CN(C)Cc2ccc(C(=O)Nc3ccccc3N)cc2)Oc2c(NS(=O)(=O)c3ccccc3)cccc2C1=O`, the AC50 in assay [9] is 4.71 µM (active).
On the same count and under the same terms, the figure for `Cc1noc(C)c1S(=O)(=O)Nc1cccc2c1O[C@H](CN(C)Cc1ccc(C(=O)Nc3ccccc3N)cc1)[C@H](C)CN([C@@H](C)CO)C2=O` is 2.03 µM (active); for `C[C@H]1CN([C@@H](C)CO)C(=O)c2cccc(NC(=O)CCCCCC(=O)Nc3ccccc3N)c2O[C@H]1CN(C)Cc1ccc(Cl)c(Cl)c1` it is 3.18 µM (active).
Still for that read-out and setting: the figure for `C[C@@H]1CN([C@@H](C)CO)C(=O)c2cccc(NC(=O)CCCCCC(=O)Nc3ccccc3N)c2O[C@H]1CN(C)Cc1ccccc1` is 2.43 µM (active).
With `C[C@@H]1CCCCO[C@H](CN(C)C(=O)Nc2ccc(C(F)(F)F)cc2)[C@@H](C)CN([C@H](C)CO)C(=O)c2cc(NS(=O)(=O)c3ccc(Cl)cc3)ccc2O1`, in [9], the AC50 was 4.76 µM (active).
The same measure, in the same setting: the figure for `C[C@@H]1CN([C@@H](C)CO)C(=O)c2cccc(NC(=O)Nc3ccc4c(c3)OCO4)c2O[C@@H]1CN(C)Cc1ccc(Oc2ccccc2)cc1` is 3.77 µM (active); for `C[C@H](CO)N1C[C@H](C)[C@H](CN(C)Cc2ccc(C(=O)Nc3ccccc3N)cc2)Oc2c(NC(=O)Nc3ccc(F)cc3)cccc2C1=O` it is 1.06 µM (active).
For `C[C@H](CO)N1C[C@H](C)[C@H](CN(C)S(=O)(=O)c2ccc(F)cc2)Oc2ccc(NC(=O)Nc3ccc(C(F)(F)F)cc3)cc2CC1=O`, the AC50 in assay [9] was 2.56 µM (active).
As to `COC(=O)c1cccc(N[C@@H]2c3cc4c(cc3C(c3cc(OC)c(O)c(OC)c3)[C@H]3C(=O)OCC32)OCO4)c1` (some centres undefined), the GI50 with P388/ADR was 0.271 µM (active); in the assay on SN12K1, 0.23 µM (active); in the assay with P388 it was 0.0103 µM (active).
Consider `O=C1CC(=O)N(c2ccccc2)N1c1ccccc1`, for which the AC50 in assay [1] is 4.37 µM (active).
Consider `CC(C)[C@](O)(C(=O)OCC1=CCN2CC[C@@H](O)[C@@H]12)[C@H](C)O`, for which the GI50 with P388/ADR, with SN12K1 and with P388 was > 375 µM (inactive) in each case.
Consider `O=C1NC(=O)C2C3C=CC(C12)C1C2C(=O)NC(=O)C2C31` (centres undefined), for which the figures for the GI50 in the assay on P388/ADR, in the assay on SN12K1 and in the assay with P388 were 122 µM (inactive), 85.3 µM (inactive) and 21 µM (inactive), respectively.
For `CCOC(=O)NC1=C(N2CC2)C(=O)C(NC(=O)OCC)=C(N2CC2)C1=O` [DIAZIQUONE], in that order: 2.72 µM (inactive), 2.94 µM (inactive) and 1.77 µM (inactive).
